Measurements reported in PubChem BioAssay AID1259411 (Chemical Carcinogenesis Research Information System (CCRIS), 2018).
Active and inactive are the calls of the source. How the calls were made is not given here.

System: rodent carcinogenicity bioassays, tumor incidence
Assay: CCRIS carcinogenicity studies
Method in brief: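 NCI-built, expert-reviewed records of carcinogenicity and related test outcomes (mutagenicity, tumor promotion/inhibition) compiled from published and report sources, historical span 1985-2011, not updated.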

O=C1CN(/N=C/c2ccc([N+](=O)[O-])o2)C(=O)N1
carcinogen call (Species: MOUSE, Strain/Sex: B6C3F1/FEMALE, Route: ORAL, Dose: 0, 1300, 2500 PPM IN FEED FOR 103 WK (STUDY DURATION: 105 WK), Dose: 0, 1300, 2500 PPM IN FEED FOR 103 WK (STUDY DURATION: 105 WK), Tumor Site: Type of Lesion: OVARY: TUBULAR ADENOMA, MIXED TUMOR (BENIGN)): active; positive | carcinogen call (Species: MOUSE, Strain/Sex: B6C3F1/MALE, Route: ORAL, Dose: 0, 1300, 2500 PPM IN FEED FOR 103 WK (STUDY DURATION: 105 WK), Dose: 0, 1300, 2500 PPM IN FEED FOR 103 WK (STUDY DURATION: 105 WK)): inactive; negative | carcinogen call (Species: MOUSE, Strain/Sex: BDF1/FEMALE, Route: ORAL, Dose: 0, 0.075, 0.3% IN DIET BEGINNING AT 9 WK OF AGE AND CONTINUING FOR DURATION OF STUDY (STUDY DURATION: 24 MO), Dose: 0, 0.075, 0.3% IN DIET BEGINNING AT 9 WK OF AGE AND CONTINUING FOR DURATION OF STUDY (STUDY DURATION: 24 MO)): inactive; negative | carcinogen call (Species: MOUSE, Strain/Sex: BDF1/MALE, Route: ORAL, Dose: 0, 0.075, 0.3% IN DIET BEGINNING AT 9 WK OF AGE AND CONTINUING FOR DURATION OF STUDY (STUDY DURATION: 24 MO), Dose: 0, 0.075, 0.3% IN DIET BEGINNING AT 9 WK OF AGE AND CONTINUING FOR DURATION OF STUDY (STUDY DURATION: 24 MO)): inactive; negative | carcinogen call (Species: MOUSE, Strain/Sex: ICR/MALE, FEMALE, Route: TRANSPLACENTAL, Dose: 0, 75 UG/G ADMINISTERED SUBCUTANEOUSLY TO MOTHERS ON DAYS 13, 15 AND 17 OF GESTATION (STUDY DURATION: 33 WK), Tumor Site: Type of Lesion: LUNG: PAPILLARY ADENOMA): active; positive | carcinogen call (Species: MOUSE, Strain/Sex: SWISS/FEMALE, Route: ORAL, Dose: 0, 0.03% IN DIET FOR 441 D, THEN 0.04% IN DIET FOR DURATION OF STUDY (TOTAL AVERAGE DOSE: 58.76 MG/KG) (STUDY DURATION:, Dose: 0, 0.03% IN DIET FOR 441 D, THEN 0.04% IN DIET FOR DURATION OF STUDY (TOTAL AVERAGE DOSE: 58.76 MG/KG) (STUDY DURATION:): inactive; negative | carcinogen call (Species: MOUSE, Strain/Sex: SWISS/FEMALE, Route: ORAL, Dose: 0, 0.06% IN DIET FOR 441 D, THEN 0.075% IN DIET FOR DURATION OF STUDY (TOTAL AVERAGE DOSE: 115.59 MG/KG) (STUDY DURATION, Dose: 0, 0.06% IN DIET FOR 441 D, THEN 0.075% IN DIET FOR DURATION OF STUDY (TOTAL AVERAGE DOSE: 115.59 MG/KG) (STUDY DURATION): inactive; negative | carcinogen call (Species: MOUSE, Strain/Sex: SWISS/FEMALE, Route: ORAL, Dose: 0, 0.13% IN DIET FOR 441 D, THEN 0.155% IN DIET FOR DURATION OF STUDY (TOTAL AVERAGE DOSE: 224.07 MG/KG) (STUDY DURATION, Dose: 0, 0.13% IN DIET FOR 441 D, THEN 0.155% IN DIET FOR DURATION OF STUDY (TOTAL AVERAGE DOSE: 224.07 MG/KG) (STUDY DURATION): inactive; negative | carcinogen call (Species: MOUSE, Strain/Sex: SWISS/MALE, Route: ORAL, Dose: 0, 0.03% IN DIET FOR 441 D, THEN 0.04% IN DIET FOR DURATION OF STUDY (TOTAL AVERAGE DOSE: 43.63 MG/KG) (STUDY DURATION:, Dose: 0, 0.03% IN DIET FOR 441 D, THEN 0.04% IN DIET FOR DURATION OF STUDY (TOTAL AVERAGE DOSE: 43.63 MG/KG) (STUDY DURATION:): inactive; negative | carcinogen call (Species: MOUSE, Strain/Sex: SWISS/MALE, Route: ORAL, Dose: 0, 0.06% IN DIET FOR 441 D, THEN 0.075% IN DIET FOR DURATION OF STUDY (TOTAL AVERAGE DOSE: 83.59 MG/KG) (STUDY DURATION:, Dose: 0, 0.06% IN DIET FOR 441 D, THEN 0.075% IN DIET FOR DURATION OF STUDY (TOTAL AVERAGE DOSE: 83.59 MG/KG) (STUDY DURATION:): inactive; negative | carcinogen call (Species: MOUSE, Strain/Sex: SWISS/MALE, Route: ORAL, Dose: 0, 0.13% IN DIET FOR 441 D, THEN 0.155% IN DIET FOR DURATION OF STUDY (TOTAL AVERAGE DOSE: 181.14 MG/KG) (STUDY DURATION, Dose: 0, 0.13% IN DIET FOR 441 D, THEN 0.155% IN DIET FOR DURATION OF STUDY (TOTAL AVERAGE DOSE: 181.14 MG/KG) (STUDY DURATION, Tumor Site: Type of Lesion: HEMATOPOIETIC SYSTEM: MALIGNANT LYMPHOMA): active; positive | carcinogen call (Species: RAT, Strain/Sex: F344/FEMALE, Route: ORAL, Dose: 0, 600, 1300 PPM IN FEED FOR 103 WK (STUDY DURATION: 105 WK), Dose: 0, 600, 1300 PPM IN FEED FOR 103 WK (STUDY DURATION: 105 WK)): inactive; negative | carcinogen call (Species: RAT, Strain/Sex: F344/MALE, Route: ORAL, Dose: 0, 0.187% IN DIET FOR 104 WK (STUDY DURATION: 104 WK)): inactive; negative | carcinogen call (Species: RAT, Strain/Sex: F344/MALE, Route: ORAL, Dose: 0, 1300, 2500 PPM IN FEED FOR 103 WK (STUDY DURATION: 105 WK), Dose: 0, 1300, 2500 PPM IN FEED FOR 103 WK (STUDY DURATION: 105 WK), Tumor Site: Type of Lesion: KIDNEY: TUBULAR ADENOMA OR CARCINOMA, SUBCUTANEOUS TISSUE: FIBROMA, FIBROMA OR FIBROSARCOMA): active; positive | carcinogen call (Species: RAT, Strain/Sex: SPRAGUE-DAWLEY/FEMALE, Route: ORAL, Dose: 0, 0.188% IN DIET FOR 2 YR (STUDY DURATION: 2 YR), Tumor Site: Type of Lesion: MAMMARY GLAND: FIBROADENOMA): active; positive | carcinogen call (Species: RAT, Strain/Sex: STRAIN-CD/FEMALE, Route: ORAL, Dose: 0, 12, 24, 48 MG/KG BW IN DIET FOR 24 MO (STUDY DURATION: 24 MO), Dose: 0, 12, 24, 48 MG/KG BW IN DIET FOR 24 MO (STUDY DURATION: 24 MO)): inactive; negative | carcinogen call (Species: RAT, Strain/Sex: STRAIN-CD/MALE, Route: ORAL, Dose: 0, 12, 24, 48 MG/KG BW IN DIET FOR 24 MO (STUDY DURATION: 24 MO), Dose: 0, 12, 24, 48 MG/KG BW IN DIET FOR 24 MO (STUDY DURATION: 24 MO)): inactive; negative

CC(C)CBr
carcinogen call (Species: MOUSE, Route: INTRAPERITONEAL, Tumor Site: Type of Lesion: LUNG): active; positive

O=[N+]([O-])c1cc([N+](=O)[O-])c2ccc(S(=O)(=O)O)cc2c1O
carcinogen call (Species: MOUSE, Strain/Sex: SWISS-WEBSTER/FEMALE, Route: DERMAL, Dose: 0, 1% IN 0.1 ML DISTILLED WATER 1/WK FOR 18 MO (STUDY DURATION: 18 MO)): inactive; negative | carcinogen call (Species: MOUSE, Strain/Sex: SWISS-WEBSTER/MALE, Route: DERMAL, Dose: 0, 1% IN 0.1 ML DISTILLED WATER 1/WK FOR 18 MO (STUDY DURATION: 18 MO)): inactive; negative

CNC(=O)Oc1ccccc1OC(C)C
carcinogen call (Species: MOUSE, Strain/Sex: SWISS/FEMALE, Route: DERMAL, Dose: 0, 100 MG/KG BW IN 100 µL ACETONE 3/WK FOR 52 WK (STUDY DURATION: 52 WK)): inactive; negative | carcinogen call (Species: MOUSE, Strain/Sex: SWISS/MALE, Route: DERMAL, Dose: 0, 100 MG/KG BW IN 100 µL ACETONE 3/WK FOR 52 WK (STUDY DURATION: 52 WK)): inactive; negative

CCOc1ccc(NC(=O)CC(C)O)cc1 (stereo unspecified)
carcinogen call (Species: MOUSE, Strain/Sex: B6C3F1/FEMALE, Route: ORAL, Dose: 0, 0.75, 1.5% IN BASAL DIET FOR 76 WK FOLLOWED BY BASAL DIET ONLY FOR 8 WK (STUDY DURATION: 84 WK), Dose: 0, 0.75, 1.5% IN BASAL DIET FOR 76 WK FOLLOWED BY BASAL DIET ONLY FOR 8 WK (STUDY DURATION: 84 WK)): inactive; negative | carcinogen call (Species: MOUSE, Strain/Sex: B6C3F1/MALE, Route: ORAL, Dose: 0, 0.75, 1.5% IN BASAL DIET FOR 76 WK FOLLOWED BY BASAL DIET ONLY FOR 8 WK (STUDY DURATION: 84 WK), Dose: 0, 0.75, 1.5% IN BASAL DIET FOR 76 WK FOLLOWED BY BASAL DIET ONLY FOR 8 WK (STUDY DURATION: 84 WK), Tumor Site: Type of Lesion: KIDNEY: RENAL CELL ADENOMA, RENAL CELL CARCINOMA): active; positive

COC1=CC(=O)C[C@@H](C)[C@]12Oc1c(Cl)c(OC)cc(OC)c1C2=O
carcinogen call (Species: MOUSE, Strain/Sex: CD-1/MALE,FEMALE, Route: ORAL, Dose: 1% IN DIET FOR 12 TO 16 MO, Tumor Site: Type of Lesion: LIVER: HEPATOMA): active; positive | carcinogen call (Species: MOUSE, Strain/Sex: ICR/MALE, Route: SUBCUTANEOUS, Dose: 0.5, 0.5, 1.0 OR 1.0 MG SUSPENDED IN TRICAPRYLIN (3 MG/ANIMAL, TOTAL DOSE) ON DAYS 1, 7, 14 AND 21 OF AGE, Tumor Site: Type of Lesion: LIVER: HEPATOMA): active; positive
